This is an account of results in US20170298060A1, “PYRROLOPYRIDINE RETINOIC ACID RECEPTOR-RELATED ORPHAN RECEPTOR MODULATORS AND USES THEREOF” (INNOV17 LLC, priority 2016, published 2017).

For experiment [1], the system named is IL-17F. Kind of experiment: Human TH17 cytokine inhibition as measured by ELISA (IL-17F). Conditions: 72 h; human CD4+ T cells under TH17-polarizing conditions, 3 days, supernatant ELISA, 0.1% DMSO. Type of experiment: cell-based. Here is the method:
(§1) Human TH17 Cytokine Inhibition as Measured by ELISA
(§2) Peripheral blood mononuclear cells (PBMCs) were sourced from freshly prepared leukocyte enriched plasma (buffy coat) from healthy donors (New York Blood Center). PBMCs were isolated by density gradient centrifugation using Ficoll-Paque™ PLUS (GE Healthcare). Human CD4+ T cells were seeded into 96-well plates (5×10^4 cells/well) and activated with plate-bound anti-human (h)-CD3 antibody and soluble h-aCD28 (both at 1 ug/ml; eBioscience) and differentiated into TH17 cells with 20 ng/mL h-IL-6, 5 ng/mL h-TGF-β1, 10 ng/mL h-IL-23 (eBioscience) and 10 ng/mL IL-1β (Miltenyi Biotec) in serum-free TexMACS Medium (Miltenyi Biotec) supplemented with 1% Penicillin/Streptomycin (Lonza) for 3 days. CD4+ T cells propagated under TH17-polarizing conditions were cultured in the presence or absence of various concentrations of compounds with a final concentration of 0.1% DMSO. Supernatants were collected and stored at −20° C. until assayed for IL-17A and IL-17F levels by “Ready-Set-Go” ELISA kits (eBioscience) as per manufacturer's instructions. Endpoint absorbance was read at 450 nm using a microplate reader (Perkin Elmer).

Experiment [2] deals with IL-17A. The experiment in a line: Human TH17 cytokine inhibition as measured by ELISA (IL-17A). Type of experiment: cell-based. As to conditions: 72 h; human CD4+ T cells under TH17-polarizing conditions, 3 days, supernatant ELISA, 0.1% DMSO. Here is the method:
as §1, §2

For `O=C(c1ccccc1F)N1CCC(Cn2ccc3cc(-c4cn[nH]c4)cnc32)CC1` [Example 12, (4-((5-(1H-pyrazol-4-yl)-1H-pyrrolo[2,3-b]pyridin-1-yl)methyl)piperidin-1-yl)(2-fluorophenyl)methanone], the 50% inhibitory concentration (IC50) in experiment [1] and in experiment [2] was less than 10 µM throughout.

Regarding `O=S(=O)(c1ccccc1F)N1CCC(Cn2ccc3cc(-c4cn[nH]c4)cnc32)CC1` [Example 16, 1-((1-((2-fluorophenyl)sulfonyl)piperidin-4-yl)methyl)-5-(1H-pyrazol-4-yl)-1H-pyrrolo[2,3-b]pyridine], the IC50 in experiment [1] and in experiment [2] was less than 10 µM in each case.

`O=S(=O)(CCc1ccccc1)N1CCC(Cn2ccc3cc(-c4cn[nH]c4)cnc32)CC1` [Example 13, 1-((1-(phenethylsulfonyl)piperidin-4-yl)methyl)-5-(1H-pyrazol-4-yl)-1H-pyrrolo[2,3-b]pyridine]: the IC50 in experiment [1] and in experiment [2] was less than 10 µM throughout.

As to `O=S(=O)(c1ccccc1)N1CCC(Cn2ccc3cc(-c4cn[nH]c4)ncc32)CC1` [Example 7, 1-((1-(phenylsulfonyl)piperidin-4-yl)methyl)-5-(1H-pyrazol-4-yl)-1H-pyrrolo[2,3-c]pyridine], the half-inhibitory concentration (IC50) in experiment [1] and in experiment [2] was less than 10 µM each time.

As for `O=C(c1ccccc1)N1CCC(Cn2ccc3cc(-c4cn[nH]c4)cnc32)CC1` [Example 9, (4-((5-(1H-pyrazol-4-yl)-1H-pyrrolo[2,3-b]pyridin-1-yl)methyl)piperidin-1-yl)(phenyl)methanone], the IC50 in experiment [1] and in experiment [2] was less than 10 µM each time.

Turning to `CC(C)CC(=O)N1CCC(Cn2ccc3cc(-c4cn[nH]c4)cnc32)CC1` [Example 11, 1-(4-((5-(1H-pyrazol-4-yl)-1H-pyrrolo[2,3-b]pyridin-1-yl)methyl)piperidin-1-yl)-3-methylbutan-1-one], the IC50 in experiment [1] and in experiment [2] was less than 10 µM each time.

As for `O=S(=O)(c1ccccc1F)N1CCC(Cn2ccc3cc(-c4cn[nH]c4)ncc32)CC1` [Example 8, 1-((1-((2-fluorophenyl)sulfonyl)piperidin-4-yl)methyl)-5-(1H-pyrazol-4-yl)-1H-pyrrolo[2,3-c]pyridine], the IC50 in experiment [1] and in experiment [2] was less than 10 µM in each case.

In the case of `CC(C)CS(=O)(=O)N1CCC(Cn2ccc3cc(-c4cn[nH]c4)cnc32)CC1` [Example 14, 1-((1-(isobutylsulfonyl)piperidin-4-yl)methyl)-5-(1H-pyrazol-4-yl)-1H-pyrrolo[2,3-b]pyridine], the concentration for half-maximal inhibition (IC50) in experiment [1] and in experiment [2] was less than 10 µM throughout.

With `CC(C)CC(=O)N1CCC(Cn2ccc3cc(-c4cn[nH]c4)ncc32)CC1` [Example 3], the IC50 in experiment [1] and in experiment [2] was less than 10 µM throughout.

In the case of `O=C(c1ccccc1F)N1CCC(Cn2ccc3cc(-c4cn[nH]c4)ncc32)CC1` [Example 4, (4-((5-(1H-pyrazol-4-yl)-1H-pyrrolo[2,3-c]pyridin-1-yl)methyl)piperidin-1-yl)(2-fluorophenyl)methanone], the 50% inhibitory concentration (IC50) in experiment [1] and in experiment [2] was less than 10 µM throughout.

Consider `CC(C)CS(=O)(=O)N1CCC(Cn2ccc3cc(-c4cn[nH]c4)ncc32)CC1` [Example 6, 1-((1-(isobutylsulfonyl)piperidin-4-yl)methyl)-5-(1H-pyrazol-4-yl)-1H-pyrrolo[2,3-c]pyridine], for which the IC50 in experiment [1] and in experiment [2] was less than 10 µM each time.

Turning to `O=C(c1ccccc1)N1CCC(Cn2ccc3cc(-c4cn[nH]c4)ncc32)CC1` [Example 1, (4-((5-(1H-pyrazol-4-yl)-1H-pyrrolo[2,3-c]pyridin-1-yl)methyl)piperidin-1-yl)(phenyl)methanone], the IC50 in experiment [1] and in experiment [2] was less than 10 µM in each case.

Consider `O=S(=O)(CCc1ccccc1)N1CCC(Cn2ccc3cc(-c4cn[nH]c4)ncc32)CC1` [Example 5, 1-((1-(phenethylsulfonyl)piperidin-4-yl)methyl)-5-(1H-pyrazol-4-yl)-1H-pyrrolo[2,3-c]pyridine], for which the IC50 in experiment [1] and in experiment [2] was less than 10 µM throughout.

`O=C(CCc1ccccc1)N1CCC(Cn2ccc3cc(-c4cn[nH]c4)cnc32)CC1` [Example 10, 1-(4-((5-(1H-pyrazol-4-yl)-1H-pyrrolo[2,3-b]pyridin-1-yl)methyl)piperidin-1-yl)-3-phenylpropan-1-one]: the IC50 in experiment [1] and in experiment [2] was less than 10 µM in each case.

Turning to `O=S(=O)(c1ccccc1)N1CCC(Cn2ccc3cc(-c4cn[nH]c4)cnc32)CC1` [Example 15, 1-((1-(phenylsulfonyl)piperidin-4-yl)methyl)-5-(1H-pyrazol-4-yl)-1H-pyrrolo[2,3-b]pyridine], the IC50 in experiment [1] and in experiment [2] was less than 10 µM each time.
